Article PMC12216189 (Nature Communications, 2025)
Ends that are not written are not given here.

How the values were obtained:
A. baumannii 19606 [1] = test: Bactericidal assay of kanamycin with/without HNP1, no preincubation; type: cell-based, Acinetobacter baumannii; settings: 0–100 μg/ml, LB broth, 24 h
A. baumannii 19606 [2] = test: Biofilm formation assay; type: cell-based, Acinetobacter baumannii; settings: for Biofilm-enhancing activity of HNP1 mutants (CV staining): HNP1 Ala-scan mutants and analogs, Fig. 6F
Shigella = settings: sub-lethal concentrations; ref [78]; cited from earlier work
Staphylococcus = settings: ref [26]; cited from earlier work
A. baumannii 19606 [3] = test: Real colony count bactericidal assay in LB broth; type: cell-based, Acinetobacter baumannii; settings: 4 μM
[4] = tested on: S. aureus, P. aeruginosa, and A. baumannii; settings: various bacteria, including S. aureus, ref [24]–[26]; cited from earlier work
[5] = target: Fam-A11K-HNP1 (fluorescently labeled synthetic human neutrophil peptide 1) (human); test: fluorescence polarisation
drug-resistant bacteria = settings: ref [84]; cited from earlier work
A. baumannii 19606 [6] = test: Competitive inhibition by recombinant OmpA of HNP1-promoted biofilm formation; type: cell-based, Acinetobacter baumannii; settings: 0–2 μM OmpA

NC[C@H]1O[C@H](O[C@H]2[C@H](O)[C@@H](O[C@H]3O[C@H](CO)[C@@H](O)[C@H](N)[C@H]3O)[C@H](N)C[C@@H]2N)[C@H](O)[C@@H](O)[C@@H]1O [Kanamycin]
Kanamycin effect on bacterial growth and survival (A. baumannii 19606 [1]): dose-dependently inhibited bacterial growth and survival

AFTCHCRR-SCYSTEYSYGTCTVMGINHRFCCL (disulfide) [HD6]
Effect on biofilm formation (CV staining) (A. baumannii 19606 [2]; 4 μM, A. baumannii 19606): slightly enhanced it

ATCYCRTGRCATRESLSGVCEISGRLYRLCCR (disulfide (positions not given here)) [HD5]
Shigella infection of epithelial cells and tissues (Shigella): promotes, at sub-lethal concentrations, Shigella infection | Effect on biofilm formation (CV staining) (A. baumannii 19606 [2]; 4 μM, A. baumannii 19606): slightly enhanced it

HBD1: human β-defensin (DHYNCVSSGGQCLYSACPIFTKIQGTCYRGKAKCCK; ends and bridges not checked; cysteine pairing not given here; UniProt P60022 33-68, looked up)
Effect on biofilm formation (CV staining) (A. baumannii 19606 [2]; 4 μM, A. baumannii 19606): inactive in promoting biofilm formation

HBD3: human β-defensin 3, cited only (GIINTLQKYYCRVRGGRCAVLSCLPKEEQIGKCSTRGRKCCRRKK; ends and bridges not checked; cysteine pairing not given here; UniProt P81534 23-67, looked up)
Effect on biofilm formation (Staphylococcus): inhibitory against biofilm formation

I6A: HNP1 Ala-substitution mutant
Biofilm-enhancing activity of HNP1 mutants (CV staining) (A. baumannii 19606 [2]): significant decrease in biofilm enhancement

I20A/L25A: HNP1 Ala-substitution mutant
Biofilm-enhancing activity of HNP1 mutants (CV staining) (A. baumannii 19606 [2]): significant decrease in biofilm enhancement

LL37: human cathelicidin (LLGDFFRKSKEKIGKEFKRIVQRIKDFLRNLVPRTES; Antibacterial peptide LL-37; UniProt P49913 134-170, looked up)
Bacterial killing in LB broth (A. baumannii 19606 [3]): killing of the bacteria even in the presence of LB broth | Effect on biofilm formation [4]: inhibit biofilm formation by various bacteria | Effect on biofilm formation (CV staining) (A. baumannii 19606 [2]; 4 μM, A. baumannii 19606): significantly inhibited biofilm formation

OmpA-ΔL1L2 (full-length OmpA with extracellular loops L1 and L2 deleted) (natural protein)
fold decrease of binding against full-length OmpA [5]: 3 fold

R15A: HNP1 Ala-substitution mutant
Biofilm-enhancing activity of HNP1 mutants (CV staining) (A. baumannii 19606 [2]): significant decrease in biofilm enhancement

T18A: HNP1 Ala-substitution mutant
Biofilm-enhancing activity of HNP1 mutants (CV staining) (A. baumannii 19606 [2]): significant decrease in biofilm enhancement

TM-ΔL1L2 (transmembrane domain of OmpA with extracellular loops L1 and L2 deleted) (domain or fragment)
fold decrease of binding against the transmembrane domain of OmpA [5]: 3 fold

VCSCRLVFCRRTELRVGNCLIGGVSFTYCCTRV (disulfide (positions not given here)) [HNP4]
Effect on biofilm formation (CV staining) (A. baumannii 19606 [2]; 0–32 μM, LB broth, 96-well plate, 24 h, 37 °C): largely inactive | Effect on biofilm formation (CV staining) (A. baumannii 19606 [2]; 4 μM, A. baumannii 19606): inactive in promoting biofilm formation

W26A-HNP1: dimerization-debilitating analog
Biofilm-enhancing activity of HNP1 mutants (CV staining) (A. baumannii 19606 [2]): completely lost their biofilm-enhancing activity

colistin
Potentiation of antibacterial activity of classic antibiotics (drug-resistant bacteria): potentiate the antibacterial activity of classic antibiotics

B1: full-length recombinant OmpA (outer membrane protein A) of Acinetobacter baumannii ATCC 19606 (natural protein)
chain: GVTVTPLLLGYTFQDSQHNNGGKDGNLTNGPELQDDLFVGAALGIELTPWLGFEAEYNQVKGDVDGASAGAEYKQKQINGNFYVTSDLITKNYDSKIKPYVLLGAGHYKYDFDGVNRGTRGTSEEGTLGNAGVGAFWRLNDALSLRTEARATYNADEEFWNYTALAGLNVVLGGHLKPAAPVVEVAPVEPTPVAPQPQELTEDLNMELRVFFDTNKSNIKDQYKPEIAKVAEKLSEYPNATARIEGHTDNTGPRKLNERLSLARANSVKSALVNEYNVDASRLSTQGFAWDQPIADNKTKEGRAMNRRVFATITGSRTVVVQPGQEAAAPAAAQ
Kd [5]: 500 nM

B2: OmpA: recombinant A. baumannii outer membrane protein A with His tag (protein)
chain: GVTVTPLLLGYTFQDSQHNNGGKDGNLTNGPELQDDLFVGAALGIELTPWLGFEAEYNQVKGDVDGASAGAEYKQKQINGNFYVTSDLITKNYDSKIKPYVLLGAGHYKYDFDGVNRGTRGTSEEGTLGNAGVGAFWRLNDALSLRTEARATYNADEEFWNYTALAGLNVVLGGHLKPAAPVVEVAPVEPTPVAPQPQELTEDLNMELRVFFDTNKSNIKDQYKPEIAKVAEKLSEYPNATARIEGHTDNTGPRKLNERLSLARANSVKSALVNEYNVDASRLSTQGFAWDQPIADNKTKEGRAMNRRVFATITGSRTVVVQPGQEAAAPAAAQ
modifications: left off: His tag, end not stated, state not stated
Effect of recombinant OmpA on HNP1-promoted biofilm formation (A. baumannii 19606 [6]; 8 μM HNP1): dose-dependently inhibited biofilm formation promoted by HNP1 | Effect of recombinant OmpA on biofilm formation without HNP1 (A. baumannii 19606 [6]; no HNP1): little effect on biofilm formation
